Results: paper PMC10425210 (The Journal of Clinical Investigation, 2023)
Values joined by “and” are separate entries in the source; they are usually repeats but may differ in a detail not shown here. Equal entries are not always repeated.

System: SHIV-SF162P3
Experiment: Antiviral assay in rhesus PBMCs acutely infected with SHIV.SF162P3
Format: cell-based, rhesus macaque
Settings: for SHIV Replication (Mean): representative assay, N 3
Protocol: Freshly isolated PBMCs from 3 male Indian rhesus macaque (Macaca mulatta) donors were obtained from Human Cells Biosciences. Rhesus PBMCs were cultured in RPMI-1640 cell culture media (Life Technologies) supplemented with 10% heat-inactivated FBS (Hyclone), 2 mM glutamine, and 100 units/mL penicillin plus 100 μg/mL streptomycin (complete RPMI). Prior to their use in antiviral assays, PBMCs from 3 independent donors were pooled and activated at a density of 3 × 10^6 cells per mL for 72 hours at 37°C by addition of 1 μg/mL PHA (Sigma-Aldrich) and 50 units/mL recombinant human IL-2 (Roche Diagnostics).
Briefly, PHA/IL-2–stimulated rhesus PBMCs were infected in bulk culture with SHIV.SF162P3 at a concentration of 130 pg p27 equivalent per million PBMCs. Cells were maintained in suspension by gently rocking the cultures mixed with virus inoculum for 3 hours at 37°C. Cells were then pelleted by centrifugation at 500g for 5 minutes, washed twice with complete RPMI to remove any unadsorbed virus, and seeded into 96-well plates at a cell density of 2 × 10^5 cells per well in 100 μL. […] Cultures were incubated in a 5% CO2 incubator at 37°C for 7 days. The cell-free supernatants derived from the PBMC cultures were harvested 7 days after infection, and the amount of SHIV present was quantified using a SIV p27 antigen capture ELISA assay (item 5436, Advanced Bioscience Laboratories Inc.) performed according to the manufacturer’s protocol.

CC(C)(C#Cc1ccc(-c2ccc(Cl)c3c(NS(C)(=O)=O)nn(CC(F)(F)F)c23)c([C@H](Cc2cc(F)cc(F)c2)NC(=O)Cn2nc(C(F)(F)F)c3c2C(F)(F)[C@@H]2C[C@H]32)n1)S(C)(=O)=O [LEN, Lenacapavir]
SHIV Replication (Mean) (LEN 0.011 nM): 98 | SHIV Replication (Mean) (LEN 0.034 nM): 91 | SHIV Replication (Mean) (LEN 0.103 nM): 99 | SHIV Replication (Mean) (LEN 0.309 nM): 60 | SHIV Replication (Mean) (LEN 0.926 nM): 18 | SHIV Replication (Mean) (LEN 2.778 nM): 1 | SHIV Replication (Mean) (LEN 8.333 nM): 0 | SHIV Replication (Mean) (LEN 25 nM): 0 | EC50 (Macaca mulatta, PBMC, 168 h): 0.39 ± 0.16 nM | paEC95 (protein-adjusted EC95) (SHIV, rhesus PBMCs, EC95 x rhesus plasma shift): 8.80 nM and 8.8 nM and 8.80 ± 3.69^E nM | EC95 (SHIV-SF162P3, rhesus PBMCs, EC95 = EC50 x (95/5)^1/n): 0.91 nM and 0.91 ± 0.38 nM
